Results from US10131652B2, “Pyrimidinyloxy benzene derivatives as herbicides” (E. I. DU PONT DE NEMOURS AND COMPANY, priority 2014, dated 2018).

Key:
Format in all cases: in vivo
[1] = system: blackgrass (Alopecurus myosuroides); test: Test B postemergence plant response
In short: (§1)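 Injury was assessed visually about 10 days after treatment, scored from 0 (no effect) to 100 (complete control) by comparison with untreated controls. Test chemicals had been applied postemergence to potted plants at the one- to two-leaf stage, grown in loam soil and sand in a greenhouse.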

[2] = system: galium (catchweed bedstraw, Galium aparine); test: Test B postemergence plant response
In short: as §1

rice (Oryza sativa) = test: Test C flooded paddy test plant response; conditions: Flood, 250 g ai/ha; scale of 0 to 100 where 0 is no effect and 100 is complete control; 13 to 15 days
In short: (§2)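 Readout is a visual 0–100 score (100 = complete control) versus controls at 13–15 days. Plants at 2-leaf stage, flooded to 3 cm, treated through paddy water.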

[3] = system: ducksalad (Heteranthera limosa); test: Test C flooded paddy test plant response; conditions: Flood, 250 g ai/ha; scale of 0 to 100 where 0 is no effect and 100 is complete control; 13 to 15 days
In short: as §2

[4] = system: small-flower umbrella sedge (Cyperus difformis); test: Test C flooded paddy test plant response; conditions: Flood, 250 g ai/ha; scale of 0 to 100 where 0 is no effect and 100 is complete control; 13 to 15 days
In short: as §2

[5] = system: barnyardgrass (Echinochloa crus-galli); test: Test C flooded paddy test plant response; conditions: Flood, 250 g ai/ha; scale of 0 to 100 where 0 is no effect and 100 is complete control; 13 to 15 days
In short: as §2

corn (Zea mays) = test: Test B pre-/postemergence plant response
In short: (§3)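 Greenhouse pots, loam/sand soil; compound formulated with surfactant in non-phytotoxic solvent. Preemergence soil spray and postemergence spray at 1–2 leaf stage run simultaneously. Visual injury, 0–100, about 10 days post-treatment.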

[6] = system: ragweed (common ragweed, Ambrosia elatior); test: Test B pre-/postemergence plant response
In short: as §3

kochia (Kochia scoparia) = test: Test B pre-/postemergence plant response
In short: as §3

[7] = system: giant foxtail (Setaria faberii); test: Test B pre-/postemergence plant response
In short: as §3

[8] = system: pigweed (Amaranthus retroflexus); test: Test B pre-/postemergence plant response
In short: as §3

[9] = system: wheat (Triticum aestivum); test: Test B pre-/postemergence plant response
In short: as §3

[10] = system: Italian ryegrass (Lolium multiflorum); test: Test B pre-/postemergence plant response
In short: as §3

[11] = system: barnyardgrass (Echinochloa crus-galli); test: Test B pre-/postemergence plant response
In short: as §3

[12] = 125 g ai/ha, postemergence, 0 to 100 scale, 0 no effect, 100 complete control
[13] = Postemergence, 500 g ai/ha, 0 to 100 scale (0 no effect, 100 complete control)
[14] = Preemergence, 125 g ai/ha, 0 to 100 scale (0 no effect, 100 complete control)
[15] = Preemergence, 500 g ai/ha, 0 to 100 scale where 0 is no effect and 100 is complete control
[16] = Postemergence, 1000 g ai/ha, 0 to 100 scale (0 no effect, 100 complete control)
[17] = Preemergence, 1000 g ai/ha, 0 to 100 scale (0 no effect, 100 complete control)
[18] = Postemergence, 31 g ai/ha, 0 to 100 scale (0 no effect, 100 complete control)
[19] = 31 g ai/ha, Preemergence, 0 to 100 scale where 0 is no effect and 100 is complete control

Clc1cnc(Oc2ccccc2-c2ccc(Br)s2)nc1 [Compound 181]
Plant response rating, Blackgrass [1, 12]: 0 | Plant response rating, Blackgrass [1, 13]: 10 | Plant response rating, Galium [2, 12]: 10 | Plant response rating, Galium [2, 13]: 50 | Rice plant response rating (rice (Oryza sativa)): 0 | Ducksalad plant response rating [3]: 0 | Sedge, Umbrella plant response rating [4]: 0 | Barnyardgrass plant response rating [5]: 0 | Plant response rating, Corn (corn (Zea mays); [12]): 10 | Plant response rating, Corn (corn (Zea mays); [13]): 10 | Plant response rating, Ragweed [6, 12]: 10 | Plant response rating, Ragweed [6, 13]: 10 | Ragweed plant response rating [6, 14]: 0 | Plant response rating, Ragweed [6, 15]: 0 | Plant response rating, Kochia (kochia (Kochia scoparia); [12]): 30 | Plant response rating, Kochia (kochia (Kochia scoparia); [13]): 50 | Kochia plant response rating (kochia (Kochia scoparia); [14]): 0 | Plant response rating, Kochia (kochia (Kochia scoparia); [15]): 0 | Plant response rating, Foxtail, Giant [7, 12]: 0 | Plant response rating, Foxtail, Giant [7, 13]: 20 | Foxtail, Giant plant response rating [7, 14]: 0 | Plant response rating, Foxtail, Giant [7, 15]: 40 | Plant response rating, Pigweed [8, 12]: 50 | Plant response rating, Pigweed [8, 13]: 90 | Pigweed plant response rating [8, 14]: 10 | Plant response rating, Pigweed [8, 15]: 80 | Plant response rating, Wheat [9, 12]: 0 | Plant response rating, Wheat [9, 13]: 0 | Plant response rating, Ryegrass, Italian [10, 12]: 0 | Plant response rating, Ryegrass, Italian [10, 13]: 0 | Ryegrass, Italian plant response rating [10, 14]: 0 | Plant response rating, Ryegrass, Italian [10, 15]: 0 | Plant response rating, Barnyardgrass [11, 12]: 10 | Plant response rating, Barnyardgrass [11, 13]: 20 | Barnyardgrass plant response rating [11, 14]: 0 | Plant response rating, Barnyardgrass [11, 15]: 10

Clc1cnc(Oc2ccccc2-c2cccs2)nc1 [Compound 182]
Plant response rating, Blackgrass [1, 12]: 0 | Plant response rating, Blackgrass [1, 13]: 10 | Plant response rating, Galium [2, 12]: 30 | Plant response rating, Galium [2, 13]: 50 | Rice plant response rating (rice (Oryza sativa)): 0 | Ducksalad plant response rating [3]: 0 | Sedge, Umbrella plant response rating [4]: 0 | Barnyardgrass plant response rating [5]: 0 | Plant response rating, Corn (corn (Zea mays); [12]): 10 | Plant response rating, Corn (corn (Zea mays); [13]): 20 | Plant response rating, Ragweed [6, 12]: 0 | Plant response rating, Ragweed [6, 13]: 10 | Ragweed plant response rating [6, 14]: 0 | Plant response rating, Ragweed [6, 15]: 10 | Plant response rating, Kochia (kochia (Kochia scoparia); [12]): 30 | Plant response rating, Kochia (kochia (Kochia scoparia); [13]): 80 | Kochia plant response rating (kochia (Kochia scoparia); [14]): 0 | Plant response rating, Kochia (kochia (Kochia scoparia); [15]): 30 | Plant response rating, Foxtail, Giant [7, 12]: 0 | Plant response rating, Foxtail, Giant [7, 13]: 50 | Foxtail, Giant plant response rating [7, 14]: 0 | Plant response rating, Foxtail, Giant [7, 15]: 40 | Plant response rating, Pigweed [8, 12]: 40 | Plant response rating, Pigweed [8, 13]: 80 | Pigweed plant response rating [8, 14]: 0 | Plant response rating, Pigweed [8, 15]: 40 | Plant response rating, Wheat [9, 12]: 0 | Plant response rating, Wheat [9, 13]: 0 | Plant response rating, Ryegrass, Italian [10, 12]: 0 | Plant response rating, Ryegrass, Italian [10, 13]: 0 | Ryegrass, Italian plant response rating [10, 14]: 0 | Plant response rating, Ryegrass, Italian [10, 15]: 10 | Plant response rating, Barnyardgrass [11, 12]: 0 | Plant response rating, Barnyardgrass [11, 13]: 10 | Barnyardgrass plant response rating [11, 14]: 0 | Plant response rating, Barnyardgrass [11, 15]: 20

FC(F)c1cc(-c2ccccc2Oc2ncc(Cl)cn2)ncn1 [Compound 184]
Plant response rating, Blackgrass [1, 12]: 10 | Plant response rating, Blackgrass [1, 13]: 60 | Plant response rating, Galium [2, 12]: 70 | Plant response rating, Galium [2, 13]: 100 | Rice plant response rating (rice (Oryza sativa)): 0 | Ducksalad plant response rating [3]: 0 | Sedge, Umbrella plant response rating [4]: 0 | Barnyardgrass plant response rating [5]: 0 | Plant response rating, Corn (corn (Zea mays); [12]): 10 | Plant response rating, Corn (corn (Zea mays); [13]): 20 | Plant response rating, Ragweed [6, 12]: 20 | Plant response rating, Ragweed [6, 13]: 40 | Ragweed plant response rating [6, 14]: 0 | Plant response rating, Ragweed [6, 15]: 50 | Plant response rating, Kochia (kochia (Kochia scoparia); [12]): 70 | Plant response rating, Kochia (kochia (Kochia scoparia); [13]): 100 | Kochia plant response rating (kochia (Kochia scoparia); [14]): 20 | Plant response rating, Kochia (kochia (Kochia scoparia); [15]): 100 | Plant response rating, Foxtail, Giant [7, 12]: 10 | Plant response rating, Foxtail, Giant [7, 13]: 70 | Foxtail, Giant plant response rating [7, 14]: 20 | Plant response rating, Foxtail, Giant [7, 15]: 90 | Plant response rating, Pigweed [8, 12]: 90 | Plant response rating, Pigweed [8, 13]: 100 | Pigweed plant response rating [8, 14]: 80 | Plant response rating, Pigweed [8, 15]: 100 | Plant response rating, Wheat [9, 12]: 0 | Plant response rating, Wheat [9, 13]: 10 | Plant response rating, Ryegrass, Italian [10, 12]: 0 | Plant response rating, Ryegrass, Italian [10, 13]: 20 | Ryegrass, Italian plant response rating [10, 14]: 0 | Plant response rating, Ryegrass, Italian [10, 15]: 10 | Plant response rating, Barnyardgrass [11, 12]: 0 | Plant response rating, Barnyardgrass [11, 13]: 50 | Barnyardgrass plant response rating [11, 14]: 10 | Plant response rating, Barnyardgrass [11, 15]: 90

Clc1cnc(Oc2ccccc2-c2ccc(Cl)nn2)nc1 [Compound 186]
Plant response rating, Blackgrass [1, 16]: 20 | Plant response rating, Galium [2, 16]: 20 | Rice plant response rating (rice (Oryza sativa)): 0 | Ducksalad plant response rating [3]: 0 | Sedge, Umbrella plant response rating [4]: 0 | Barnyardgrass plant response rating [5]: 0 | Plant response rating, Corn (corn (Zea mays); [16]): 0 | Plant response rating, Ragweed [6, 16]: 50 | Plant response rating, Ragweed [6, 17]: 70 | Plant response rating, Kochia (kochia (Kochia scoparia); [16]): 30 | Plant response rating, Kochia (kochia (Kochia scoparia); [17]): 100 | Plant response rating, Foxtail, Giant [7, 16]: 30 | Plant response rating, Foxtail, Giant [7, 17]: 100 | Plant response rating, Pigweed [8, 16]: 20 | Plant response rating, Pigweed [8, 17]: 100 | Plant response rating, Wheat [9, 16]: 0 | Plant response rating, Ryegrass, Italian [10, 16]: 0 | Plant response rating, Ryegrass, Italian [10, 17]: 0 | Plant response rating, Barnyardgrass [11, 16]: 0 | Plant response rating, Barnyardgrass [11, 17]: 20

Cc1ccnc(-c2ccccc2Oc2ncc(Cl)cn2)c1 [Compound 187]
Plant response rating, Blackgrass [1, 12]: 0 | Plant response rating, Blackgrass [1, 18]: 0 | Plant response rating, Galium [2, 12]: 0 | Plant response rating, Galium [2, 18]: 0 | Rice plant response rating (rice (Oryza sativa)): 0 | Ducksalad plant response rating [3]: 50 | Sedge, Umbrella plant response rating [4]: 0 | Barnyardgrass plant response rating [5]: 0 | Plant response rating, Corn (corn (Zea mays); [12]): 0 | Plant response rating, Corn (corn (Zea mays); [18]): 0 | Plant response rating, Ragweed [6, 19]: 0 | Plant response rating, Ragweed [6, 12]: 0 | Plant response rating, Ragweed [6, 18]: 0 | Ragweed plant response rating [6, 14]: 0 | Plant response rating, Kochia (kochia (Kochia scoparia); [19]): 0 | Plant response rating, Kochia (kochia (Kochia scoparia); [12]): 0 | Plant response rating, Kochia (kochia (Kochia scoparia); [18]): 0 | Kochia plant response rating (kochia (Kochia scoparia); [14]): 0 | Plant response rating, Foxtail, Giant [7, 19]: 0 | Plant response rating, Foxtail, Giant [7, 12]: 0 | Plant response rating, Foxtail, Giant [7, 18]: 0 | Foxtail, Giant plant response rating [7, 14]: 0 | Plant response rating, Pigweed [8, 19]: 0 | Plant response rating, Pigweed [8, 12]: 0 | Plant response rating, Pigweed [8, 18]: 0 | Pigweed plant response rating [8, 14]: 0 | Plant response rating, Wheat [9, 12]: 0 | Plant response rating, Wheat [9, 18]: 0 | Plant response rating, Ryegrass, Italian [10, 19]: 0 | Plant response rating, Ryegrass, Italian [10, 12]: 0 | Plant response rating, Ryegrass, Italian [10, 18]: 0 | Ryegrass, Italian plant response rating [10, 14]: 0 | Plant response rating, Barnyardgrass [11, 19]: 0 | Plant response rating, Barnyardgrass [11, 12]: 0 | Plant response rating, Barnyardgrass [11, 18]: 0 | Barnyardgrass plant response rating [11, 14]: 0
